Data reported in patent US8759334B2, “Compounds useful for the treatment of metabolic and inflammatory diseases” (Galapagos NV, priority 2011, dated 2014).

Biological target: T1, GPR43 (Homo sapiens, UniProt O15552)
T1 construct: expressed in transfected cells
T1 sequence (O15552 1-330): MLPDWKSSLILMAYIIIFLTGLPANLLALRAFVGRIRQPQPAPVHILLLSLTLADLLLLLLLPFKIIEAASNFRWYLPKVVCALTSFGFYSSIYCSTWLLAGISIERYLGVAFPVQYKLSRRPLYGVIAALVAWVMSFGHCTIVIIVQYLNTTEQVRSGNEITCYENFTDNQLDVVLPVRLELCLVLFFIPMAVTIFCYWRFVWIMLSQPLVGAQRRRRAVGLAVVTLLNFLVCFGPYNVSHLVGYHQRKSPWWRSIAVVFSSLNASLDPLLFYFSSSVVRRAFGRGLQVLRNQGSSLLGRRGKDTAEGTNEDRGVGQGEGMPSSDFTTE
Assay: Calcium mobilization assay with probenecid
Type: cell-based
Settings: GPR43 stably expressing cells; triggered with sodium acetate at EC80; 2.5 mM probenecid; read-out: GPR43 assay with probenicid IC50
Method: The following assay can be used for determination of GPR43 activation. The assay measures intracellular calcium release induced by activation of GPR43. On day 1, GPR43 stably expressing cells were detached with mild trypsinization (Trypsin, 0.25% with EDTA 4Na, 5× diluted in PBS) centrifuged at 1000 rpm for 5 min and resuspended at 6.000 cells/25 […] medium (DMEM supplemented with 10% FBS, 10 μg/mL puromycin and 1% Pen/Strep). The cells were distributed in poly-D-lysine coated 384 well plates (black with clear bottom, 25 μL/well) and incubated overnight at 37° C. 10% CO2.
On day 2, 25 μL of a fluorescent Ca^2+ indicator (Calcium 4 assay; Molecular Devices) supplemented with 2.5 mM probenecid was added on top of the cells and incubated for 2 h at 37° C. Subsequently, compounds at increasing concentration (10 μL/well) were added to the plate and incubated for 15 min at 37° C.
To measure agonist activity of the compounds, compound was added to the well and the Ca^2+-flux was measured simultaneously to the […] of compound.

Row | SMILES | IC50 [nM]
1 | Cc1cc(C)cc(CC(=O)N2CCC2(C)C(=O)N(CCCC(=O)N(C)C)Cc2ccc(Cl)cc2)c1 (stereo not shown) [Compound 125, 1-[2-(3,5-Dimethyl-phenyl)-acetyl]-2-methyl-azetidine-2-carboxylic acid (4-chloro-benzyl)-(3-dimethylcarbamoyl-propyl)-amide] | > 1000
2 | CN(Cc1ccc(Cl)cc1)C(=O)C1(C)CCN1C(=O)c1ccc2ccccc2c1 (stereo not shown) [Compound 126, 1-(2-naphthoyl)-N-(4-chlorobenzyl)-N,2-dimethylazetidine-2-carboxamide] | > 1000
3 | CC1(C(=O)N(CCCC(N)=O)Cc2ccc(Cl)cc2)CCN1C(=O)Cc1csc2ccccc12 (stereo not shown) [Compound 127, 1-(2-Benzo[b]thiophen-3-yl-acetyl)-2-methyl-azetidine-2-carboxylic acid (3-carbamoyl-propyl)-(4-chloro-benzyl)-amide] | > 1000
4 | CC1(C(=O)N(CCCC(=O)N2CCOCC2)Cc2ccc(Cl)cc2)CCN1C(=O)Cc1csc2ccccc12 (stereo not shown) [Compound 129, 1-(2-Benzo[b]thiophen-3-yl-acetyl)-2-methyl-azetidine-2-carboxylic acid (4-chloro-benzyl)-(4-morpholin-4-yl-4-oxo-butyl)-amide] | 0.01 to 100
5 | CC1(C(=O)N(CCCC(=O)N2CCOCC2)Cc2ccc(Cl)cc2)CCN1C(=O)c1csc2ccccc12 (stereo not shown) [Compound 139, 1-(benzo[b]thiophene-3-carbonyl)-N-(4-chlorobenzyl)-2-methyl-N-(4-morpholino-4-oxobutyl)azetidine-2-carboxamide] | > 1000
6 | CCOC(=O)CCCN(Cc1ccc(C(F)(F)F)cc1)C(=O)C1(C)CCN1C(=O)c1csc2ccccc12 (stereo not shown) [Compound 141, ethyl 4-(1-(benzo[b]thiophene-3-carbonyl)-2-methyl-N-(4-(trifluoromethyl)benzyl)azetidine-2-carboxamido)butanoate] | > 1000
7 | CC1(C(=O)N(CCCC(=O)O)Cc2ccc(C(F)(F)F)cc2)CCN1C(=O)c1csc2ccccc12 (stereo not shown) [Compound 145, 4-[[1-(Benzo[b]thiophene-3-carbonyl)-2-methyl-azetidine-2-carbonyl]-(4-trifluoromethyl-benzyl)-amino]-butyric acid] | 101 to 500
8 | CCOC(=O)CCCN(Cc1cccc(Cl)c1)C(=O)C1(C)CCN1C(=O)Cc1csc2ccccc12 (stereo not shown) [Compound 147, 4-[[1-(2-Benzo[b]thiophen-3-yl-acetyl)-2-methyl-azetidine-2-carbonyl]-(3-chloro-benzyl)-amino]-butyric acid ethyl ester] | 501 to 1000
9 | Cc1cc(C)cc(CC(=O)N2CCC2(C)C(=O)N(CCCN2CCCC2=O)Cc2ccc(Cl)cc2)c1 (stereo not shown) [Compound 149, 1-[2-(3,5-Dimethyl-phenyl)-acetyl]-2-methyl-azetidine-2-carboxylic acid (4-chloro-benzyl)-[3-(2-oxo-pyrrolidin-1-yl)-propyl]-amide] | > 1000
10 | COC(=O)CCN(Cc1ccc(Cl)cc1)C(=O)C1(C)CCN1C(=O)Cc1coc2ccccc12 (stereo not shown) [Compound 150, 3-[[1-(2-Benzofuran-3-yl-acetyl)-2-methyl-azetidine-2-carbonyl]-(4-chloro-benzyl)-amino]-propionic acid methyl ester] | 101 to 500
11 | CC1(C(=O)N(CCC(=O)O)Cc2ccc(Cl)cc2)CCN1C(=O)Cc1coc2ccccc12 (stereo not shown) [Compound 154, 3-[[1-(2-Benzofuran-3-yl-acetyl)-2-methyl-azetidine-2-carbonyl]-(4-chloro-benzyl)-amino]-propionic acid] | > 1000
12 | CC1(C(=O)N(CCCC(=O)O)Cc2ccc3cn[nH]c3c2)CCN1C(=O)Cc1coc2ccccc12 (stereo not shown) [Compound 156, 4-[[1-(2-Benzofuran-3-yl-acetyl)-2-methyl-azetidine-2-carbonyl]-(1H-indazol-6-ylmethyl)-amino]-butyric acid] | 101 to 500
13 | CC1(C(=O)N(CCCC(N)=O)Cc2ccc(Cl)cc2)CCN1C(=O)c1csc2ccccc12 (stereo not shown) [Compound 158, 1-(Benzo[b]thiophene-3-carbonyl)-2-methyl-azetidine-2-carboxylic acid (3-carbamoyl-propyl)-(4-chloro-benzyl)-amide] | 101 to 500
14 | Cc1cc(C)cc(CC(=O)N2CCC2(C)C(=O)N(CCCC(=O)O)Cc2ccc(C(F)(F)F)cc2)c1 (stereo not shown) [Compound 159, 4-[{1-[2-(3,5-Dimethyl-phenyl)-acetyl]-2-methyl-azetidine-2-carbonyl}-(4-trifluoromethyl-benzyl)-amino]-butyric acid] | 501 to 1000
15 | Cc1cc(C)cc(CC(=O)N2CCC2(C)C(=O)N(CCCC(=O)O)Cc2ccc3ccoc3c2)c1 (stereo not shown) [Compound 162, 4-(Benzofuran-6-ylmethyl-{1-[2-(3,5-dimethyl-phenyl)-acetyl]-2-methyl-azetidine-2-carbonyl}-amino)-butyric acid] | 501 to 1000

Now from value to molecule:

Row | IC50 [nM] | SMILES
16 | 0.01 to 100 | Cc1cc(C)cc(CC(=O)N2CCC2(C)C(=O)N(Cc2ccc(Cl)cc2)Cc2cc(O)[nH]n2)c1 (stereo not shown) [Compound 133, 1-[2-(3,5-Dimethyl-phenyl)-acetyl]-2-methyl-azetidine-2-carboxylic acid (4-chloro-benzyl)-(5-hydroxy-1H-pyrazol-3-ylmethyl)-amide]
17 | 501 to 1000 | CC1(C(=O)N(CCCC(=O)O)Cc2ccc(Cl)cc2)CCN1C(=O)c1ccc2sccc2c1 (stereo not shown) [Compound 135, 4-[[1-(Benzo[b]thiophene-5-carbonyl)-2-methyl-azetidine-2-carbonyl]-(4-chloro-benzyl)-amino]-butyric acid]
18 | 101 to 500 | CC1(C(=O)N(CCCC(=O)O)Cc2ccc(Cl)cc2)CCN1C(=O)Cc1cccc2sccc12 (stereo not shown) [Compound 136, 4-[[1-(2-Benzo[b]thiophen-4-yl-acetyl)-2-methylazetidine-2-carbonyl]-(4-chloro-benzyl)-amino]-butyric acid]
19 | > 1000 | CC1(C(=O)N(CCCC(=O)N2CCOCC2)Cc2ccc(Cl)cc2)CCN1C(=O)c1ccc2sccc2c1 (stereo not shown) [Compound 138, 1-(benzo[b]thiophene-5-carbonyl)-N-(4-chlorobenzyl)-2-methyl-N-(4-morpholino-4-oxobutyl)azetidine-2-carboxamide]
20 | > 1000 | CC1(C(=O)N(CCCC(=O)N2CCOCC2)Cc2ccc(Cl)cc2)CCN1C(=O)Cc1coc2ccccc12 (stereo not shown) [Compound 140, 1-(2-Benzofuran-3-yl-acetyl)-2-methyl-azetidine-2-carboxylic acid (4-chloro-benzyl)-(4-morpholin-4-yl-4-oxo-butyl)-amide]
21 | > 1000 | CCOC(=O)CCCN(Cc1ccc(C(F)(F)F)cc1)C(=O)C1(C)CCN1C(=O)Cc1csc2ccccc12 (stereo not shown) [Compound 142, 4-[[1-(2-Benzo[b]thiophen-3-yl-acetyl)-2-methyl-azetidine-2-carbonyl]-(4-trifluoromethyl-benzyl)-amino]-butyric acid ethyl ester]
22 | > 1000 | CCOC(=O)CCCN(Cc1cccc(Cl)c1)C(=O)C1(C)CCN1C(=O)c1csc2ccccc12 (stereo not shown) [Compound 143, ethyl 4-(1-(benzo[b]thiophene-3-carbonyl)-N-(3-chlorobenzyl)-2-methylazetidine-2-carboxamido)butanoate]
23 | 501 to 1000 | CC1(C(=O)N(CCCC(=O)O)Cc2cccc(Cl)c2)CCN1C(=O)Cc1csc2ccccc12 (stereo not shown) [Compound 148, 4-[[1-(2-Benzo[b]thiophen-3-yl-acetyl)-2-methyl-azetidine-2-carbonyl]-(3-chloro-benzyl)-amino]-butyric acid]
24 | 101 to 500 | COC(=O)CCN(Cc1ccc(Cl)cc1)C(=O)C1(C)CCN1C(=O)c1csc2ccccc12 (stereo not shown) [Compound 151, 3-[[1-(Benzo[b]thiophene-3-carbonyl)-2-methyl-azetidine-2-carbonyl]-(4-chloro-benzyl)-amino]-propionic acid methyl ester]
25 | 101 to 500 | CCOC(=O)CCCN(Cc1ccc2cn[nH]c2c1)C(=O)C1(C)CCN1C(=O)Cc1coc2ccccc12 (stereo not shown) [Compound 152, 4-[[1-(2-Benzofuran-3-yl-acetyl)-2-methyl-azetidine-2-carbonyl]-(1H-indazol-6-ylmethyl)-amino]-butyric acid ethyl ester]
26 | 101 to 500 | CCOC(=O)CCCN(Cc1ccc2cn[nH]c2c1)C(=O)C1(C)CCN1C(=O)c1csc2ccccc12 (stereo not shown) [Compound 153, 4-[[1-(Benzo[b]thiophene-3-carbonyl)-2-methyl-azetidine-2-carbonyl]-(1H-indazol-6-ylmethyl)-amino]-butyric acid ethyl ester]
27 | 101 to 500 | CC1(C(=O)N(CCCC(=O)O)Cc2ccc(C(F)(F)F)cc2)CCN1C(=O)Cc1coc2ccccc12 (stereo not shown) [Compound 160, 4-[[1-(2-Benzofuran-3-yl-acetyl)-2-methyl-azetidine-2-carbonyl]-(4-trifluoromethyl-benzyl)-amino]-butyric acid]
28 | > 1000 | Cc1cc(C)cc(CC(=O)N2CCC2(C)C(=O)N(CCCC(=O)O)Cc2cccc(Cl)c2)c1 (stereo not shown) [Compound 161, 4-((3-Chloro-benzyl)-{1-[2-(3,5-dimethyl-phenyl)-acetyl]-2-methyl-azetidine-2-carbonyl}-amino)-butyric acid]
